Laboratory results published in ChEMBL document CHEMBL4373693, “Virtual Screening Approach and Investigation of Structure-Activity Relationships To Discover Novel Bacterial Topoisomerase Inhibitors Targeting Gram-Positive and Gram-Negative Pathogens” (J Med Chem, 2019).
Values after ≈ are worked out from the molar mass of the structure shown.

How the values were obtained:
[1] = target: DNA gyrase subunit A (Staphylococcus aureus, UniProt P20831); test: Inhibition of Staphylococcus aureus ATCC 29213 DNA gyrase A assessed as reduction in enzyme-mediated supercoiling of relaxed pBR322 DNA by ethidium bromide staining based gel electrophoresis method
Chain of DNA gyrase subunit A (Staphylococcus aureus, UniProt P20831) (P20831 whole entry): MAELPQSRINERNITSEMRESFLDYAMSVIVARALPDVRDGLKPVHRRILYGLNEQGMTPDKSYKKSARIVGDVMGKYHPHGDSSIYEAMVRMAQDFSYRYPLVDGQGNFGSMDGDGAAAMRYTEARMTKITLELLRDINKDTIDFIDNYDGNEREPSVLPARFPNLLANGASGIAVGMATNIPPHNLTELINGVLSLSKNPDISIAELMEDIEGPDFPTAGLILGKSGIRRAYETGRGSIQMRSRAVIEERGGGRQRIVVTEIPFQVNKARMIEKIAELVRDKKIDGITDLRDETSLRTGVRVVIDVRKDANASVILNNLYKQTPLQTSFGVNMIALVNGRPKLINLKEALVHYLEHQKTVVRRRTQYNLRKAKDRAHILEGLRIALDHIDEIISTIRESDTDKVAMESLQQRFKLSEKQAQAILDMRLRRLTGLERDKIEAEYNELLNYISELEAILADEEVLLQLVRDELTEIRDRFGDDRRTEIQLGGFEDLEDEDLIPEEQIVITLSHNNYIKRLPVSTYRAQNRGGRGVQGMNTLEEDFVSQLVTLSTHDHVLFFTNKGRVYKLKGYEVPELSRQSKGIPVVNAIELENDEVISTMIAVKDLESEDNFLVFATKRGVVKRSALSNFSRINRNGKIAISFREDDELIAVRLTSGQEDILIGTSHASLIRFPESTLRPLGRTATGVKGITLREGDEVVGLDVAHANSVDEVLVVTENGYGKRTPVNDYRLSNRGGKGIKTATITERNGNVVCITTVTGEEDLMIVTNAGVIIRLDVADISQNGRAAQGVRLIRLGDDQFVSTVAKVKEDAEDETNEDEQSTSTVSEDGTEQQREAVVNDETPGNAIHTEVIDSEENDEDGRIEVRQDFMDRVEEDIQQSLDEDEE

[2] = target: T1, DNA topoisomerase 4 subunit A (Escherichia coli K-12, UniProt P0AFI2); test: Inhibition of Escherichia coli ATCC 25922 DNA topoisomerase 4 subunit ParC assessed as reduction in decatenation of kinetoplast DNA incubated for 30 mins by ethidium bromide staining based gel electrophoresis method
T1 sequence (P0AFI2 whole entry): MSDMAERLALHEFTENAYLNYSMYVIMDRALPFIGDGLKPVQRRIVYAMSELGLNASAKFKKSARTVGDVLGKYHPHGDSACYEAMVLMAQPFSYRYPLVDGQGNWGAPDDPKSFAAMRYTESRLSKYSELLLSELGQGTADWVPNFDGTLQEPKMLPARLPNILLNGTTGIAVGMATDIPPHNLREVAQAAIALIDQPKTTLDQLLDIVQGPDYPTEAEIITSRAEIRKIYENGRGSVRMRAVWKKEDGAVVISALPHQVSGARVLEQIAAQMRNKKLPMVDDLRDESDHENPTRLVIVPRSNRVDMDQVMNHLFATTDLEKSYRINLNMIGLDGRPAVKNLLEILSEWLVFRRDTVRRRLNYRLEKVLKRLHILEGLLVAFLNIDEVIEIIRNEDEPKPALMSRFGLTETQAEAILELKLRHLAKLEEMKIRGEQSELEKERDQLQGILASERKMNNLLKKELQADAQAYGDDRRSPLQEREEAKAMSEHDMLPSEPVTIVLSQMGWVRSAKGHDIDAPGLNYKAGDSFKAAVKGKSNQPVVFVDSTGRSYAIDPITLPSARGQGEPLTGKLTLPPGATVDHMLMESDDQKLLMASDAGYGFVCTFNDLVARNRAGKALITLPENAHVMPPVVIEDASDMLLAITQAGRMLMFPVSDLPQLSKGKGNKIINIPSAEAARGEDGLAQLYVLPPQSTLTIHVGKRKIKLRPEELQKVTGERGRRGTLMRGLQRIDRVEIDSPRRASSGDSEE

[3] = target: DNA topoisomerase 4 subunit A (Staphylococcus aureus, UniProt P0C1U9); test: Inhibition of Staphylococcus aureus ATCC 29213 DNA topoisomerase 4 subunit ParC assessed as reduction in decatenation of kinetoplast DNA incubated for 30 mins by ethidium bromide staining based gel electrophoresis method
Chain of DNA topoisomerase 4 subunit A (Staphylococcus aureus, UniProt P0C1U9) (P0C1U9 whole entry): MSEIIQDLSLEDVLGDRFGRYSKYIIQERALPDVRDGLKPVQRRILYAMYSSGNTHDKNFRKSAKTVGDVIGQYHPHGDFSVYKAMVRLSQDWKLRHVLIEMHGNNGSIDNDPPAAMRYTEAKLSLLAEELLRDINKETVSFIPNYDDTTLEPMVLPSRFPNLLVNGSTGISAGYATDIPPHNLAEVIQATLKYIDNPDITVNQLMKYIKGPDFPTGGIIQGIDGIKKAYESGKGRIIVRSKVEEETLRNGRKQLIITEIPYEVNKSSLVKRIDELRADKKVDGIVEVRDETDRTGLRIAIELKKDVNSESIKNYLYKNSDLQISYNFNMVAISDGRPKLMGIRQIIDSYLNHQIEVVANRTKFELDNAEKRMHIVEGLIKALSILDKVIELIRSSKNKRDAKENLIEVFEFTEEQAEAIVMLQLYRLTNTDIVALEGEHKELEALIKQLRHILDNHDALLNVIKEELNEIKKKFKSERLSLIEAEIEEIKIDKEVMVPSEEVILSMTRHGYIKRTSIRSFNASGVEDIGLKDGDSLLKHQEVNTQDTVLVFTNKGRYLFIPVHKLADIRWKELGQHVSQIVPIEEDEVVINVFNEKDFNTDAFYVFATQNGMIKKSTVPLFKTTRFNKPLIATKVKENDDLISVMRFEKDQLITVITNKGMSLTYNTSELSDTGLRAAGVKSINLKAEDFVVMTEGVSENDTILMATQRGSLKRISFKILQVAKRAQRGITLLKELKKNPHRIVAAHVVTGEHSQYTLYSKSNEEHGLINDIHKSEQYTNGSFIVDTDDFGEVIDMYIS

[4] = target: DNA gyrase subunit A (Escherichia coli K-12, UniProt P0AES4); test: Inhibition of Escherichia coli ATCC 25922 DNA gyrase A assessed as reduction in enzyme-mediated supercoiling of relaxed pBR322 DNA by ethidium bromide staining based gel electrophoresis method
Chain of DNA gyrase subunit A (Escherichia coli K-12, UniProt P0AES4) (P0AES4 whole entry): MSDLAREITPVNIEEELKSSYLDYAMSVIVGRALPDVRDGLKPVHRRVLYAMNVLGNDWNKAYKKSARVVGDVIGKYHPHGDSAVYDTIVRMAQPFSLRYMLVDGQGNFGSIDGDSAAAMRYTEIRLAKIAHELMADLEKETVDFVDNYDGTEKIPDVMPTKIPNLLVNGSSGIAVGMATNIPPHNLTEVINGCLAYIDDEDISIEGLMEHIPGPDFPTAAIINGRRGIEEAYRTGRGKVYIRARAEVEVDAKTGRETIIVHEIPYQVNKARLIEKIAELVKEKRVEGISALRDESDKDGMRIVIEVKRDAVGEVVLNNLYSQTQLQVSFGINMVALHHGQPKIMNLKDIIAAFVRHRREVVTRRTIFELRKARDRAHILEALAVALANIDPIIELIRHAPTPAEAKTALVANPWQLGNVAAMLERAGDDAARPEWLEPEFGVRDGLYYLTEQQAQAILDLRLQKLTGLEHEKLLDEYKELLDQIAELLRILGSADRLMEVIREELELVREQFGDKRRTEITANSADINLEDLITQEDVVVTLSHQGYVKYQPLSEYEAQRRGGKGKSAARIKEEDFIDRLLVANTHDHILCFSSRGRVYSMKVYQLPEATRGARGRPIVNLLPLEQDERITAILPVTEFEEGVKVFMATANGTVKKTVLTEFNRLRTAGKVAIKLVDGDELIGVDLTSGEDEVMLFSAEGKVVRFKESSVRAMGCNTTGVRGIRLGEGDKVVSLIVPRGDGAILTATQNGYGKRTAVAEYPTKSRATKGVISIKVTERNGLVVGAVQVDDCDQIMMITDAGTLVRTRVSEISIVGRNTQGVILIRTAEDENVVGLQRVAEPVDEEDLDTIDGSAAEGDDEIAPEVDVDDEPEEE

[5] = tested on: Staphylococcus aureus; test: Antibacterial activity against Staphylococcus aureus ATCC 29213 after 16 to 24 hrs by broth microdilution method; assay type: functional
[6] = tested on: Staphylococcus aureus; test: Antibacterial activity against Staphylococcus aureus BAA-1720 after 16 to 24 hrs by broth microdilution method; assay type: functional
[7] = tested on: Escherichia coli; test: Antibacterial activity against Escherichia coli ATCC 25922 after 16 to 24 hrs by broth microdilution method; assay type: functional
[8] = tested on: Pseudomonas aeruginosa; test: Antibacterial activity against Pseudomonas aeruginosa ATCC 27853 after 16 to 24 hrs by CLSI method; assay type: functional

Compound: O=c1cc(NCCN2CCN(c3nccc4ccccc34)CC2)c2ccccc2o1
- IC50 [1]: 6.9 µM
- IC50 [2]: 6.7 µM
- IC50 [3]: > 100 µM

Compound: O=C(CCN1CCN(c2nccc3ccc(F)cc23)CC1)Nc1cc(=O)oc2ccccc12
- IC50 [4]: 1.1 µM
- IC50 [1]: 10.5 µM
- IC50 [2]: 0.7 µM
- IC50 [3]: 39.7 µM

Compound: O=C(NCCCN1CCN(c2nccc3ccccc23)CC1)c1ccccc1
- IC50 [4]: 112 µM
- IC50 [1]: 20 µM
- MIC [5]: 16 µg/mL (≈ 42.7 µM)
- IC50 [2]: 130 µM
- MIC [6]: 32 µg/mL (≈ 85.5 µM)
- MIC [7]: 256 µg/mL (≈ 684 µM)
- IC50 [3]: 489 µM

Compound: O=c1cc(NCCCN2CCN(c3nccc4ccccc34)CC2)c2c(o1)CCCC2
- IC50 [4]: 7.6 µM
- IC50 [1]: 3.7 µM
- IC50 [2]: 7.8 µM
- IC50 [3]: 52.8 µM

Compound: O=c1cc(N[C@H]2C[C@H](N3CCN(c4nccc5ccccc45)CC3)C2)c2ccccc2o1
- IC50 [4]: 2.1 µM
- IC50 [1]: 5.6 µM
- IC50 [2]: 2.6 µM
- IC50 [3]: 11.6 µM

Compound: N#Cc1ccc2ccnc(N3CCN(CCCNc4cc(=O)oc5ccccc45)CC3)c2c1
- IC50 [4]: 2.3 µM
- IC50 [1]: 6.8 µM
- MIC [5]: 8 µg/mL (≈ 18.2 µM)
- IC50 [2]: 1.7 µM
- MIC [6]: 4 µg/mL (≈ 9.1 µM)
- MIC [7]: 2 µg/mL (≈ 4.55 µM)
- IC50 [3]: 5.1 µM
- MIC [8]: > 8 µg/mL

Compound: O=c1cc(NCCCN2CCN(c3nccc4ccc(F)cc34)CC2)c2c(o1)CCNC2
- IC50 [4]: 22.8 µM
- IC50 [1]: 164 µM
- IC50 [2]: 7.3 µM
- IC50 [3]: > 100 µM

Compound: O=C1CN(c2nccc3ccccc23)CCN1CCCNc1cc(=O)oc2ccccc12
- IC50 [4]: 46.5 µM
- IC50 [1]: > 100 µM
- IC50 [2]: 28.5 µM
- IC50 [3]: > 100 µM

Compound: O=c1cc(NCCCN2CCN(c3nccc4ccccc34)CC2)c2cc(Cl)ccc2o1
- IC50 [4]: 0.6 µM
- IC50 [1]: 5.2 µM
- MIC [5]: 8 µg/mL (≈ 17.8 µM)
- IC50 [2]: 1.2 µM
- MIC [6]: 4 µg/mL (≈ 8.91 µM)
- MIC [7]: 0.5 µg/mL (≈ 1.11 µM)
- IC50 [3]: 5.5 µM
- MIC [8]: 4 µg/mL (≈ 8.91 µM)

Compound: COc1ccc2ccnc(N3CCN(CCCNc4cc(=O)oc5ccccc45)CC3)c2c1
- IC50 [4]: 3.2 µM
- IC50 [1]: 1.1 µM
- MIC [5]: 2 µg/mL (≈ 4.5 µM)
- IC50 [2]: 0.9 µM
- MIC [6]: 1 µg/mL (≈ 2.25 µM)
- MIC [7]: 4 µg/mL (≈ 9 µM)
- IC50 [3]: 6.7 µM
- MIC [8]: 8 µg/mL (≈ 18 µM)

Compound: O=c1cc(NCCCN2CCN(c3nccc4ccc(Cl)cc34)CC2)c2ccccc2o1
- IC50 [4]: 0.9 µM
- IC50 [1]: 4.5 µM
- MIC [5]: 4 µg/mL (≈ 8.91 µM)
- IC50 [2]: 2.4 µM
- MIC [6]: 2 µg/mL (≈ 4.45 µM)
- MIC [7]: 2 µg/mL (≈ 4.45 µM)
- IC50 [3]: 5.6 µM
- MIC [8]: 8 µg/mL (≈ 17.8 µM)

Compound: O=c1cc(NCCCN2CCN(c3nccc4ccc(F)cc34)CC2)c2c(o1)CCSC2
- IC50 [4]: 1.3 µM
- IC50 [1]: 1.3 µM
- IC50 [2]: 8 µM
- IC50 [3]: 15 µM

Compound: CN(C)c1ccc2ccnc(N3CCN(CCCNc4cc(=O)oc5ccccc45)CC3)c2c1
- IC50 [4]: 5.6 µM
- IC50 [1]: 4.6 µM
- IC50 [2]: 8.8 µM
- IC50 [3]: 11.2 µM

Compound: CN(CCCN1CCN(c2nccc3ccccc23)CC1)c1cc(=O)oc2ccccc12
- IC50 [4]: 31.7 µM
- IC50 [1]: 12.1 µM
- IC50 [2]: 22.9 µM
- IC50 [3]: > 100 µM

Compound: N#Cc1cc2ccccc2c(N2CCN(CCCNc3cc(=O)oc4ccccc34)CC2)n1
- IC50 [4]: 5.6 µM
- IC50 [1]: 3.6 µM
- IC50 [2]: 3.9 µM
- IC50 [3]: > 100 µM

Compound: O=c1cc(NC2CCN(CCCc3ccccc3)CC2)c2cc(Cl)ccc2o1
- IC50 [4]: > 800 µM
- IC50 [1]: 27.8 µM
- IC50 [2]: 4.1 µM
- IC50 [3]: 100 to 200 µM

Compound: O=c1cc(CC(O)CCN2CCN(c3nccc4ccc(F)cc34)CC2)c2ccccc2o1 (racemic)
- IC50 [4]: 2.8 µM
- IC50 [1]: 0.8 µM
- MIC [5]: 1 µg/mL (≈ 2.23 µM)
- IC50 [2]: 2.5 µM
- MIC [6]: 4 µg/mL (≈ 8.94 µM)
- MIC [7]: 8 µg/mL (≈ 17.9 µM)
- IC50 [3]: 1.7 µM
- MIC [8]: > 8 µg/mL

Compound: O=c1cc(NCC(O)CN2CCN(c3nccc4ncccc34)CC2)c2cc(F)ccc2o1 (racemic)
- IC50 [4]: 0.15 µM
- IC50 [1]: 1.1 µM
- MIC [5]: 4 µg/mL (≈ 8.9 µM)
- IC50 [2]: 0.2 µM
- MIC [6]: 4 µg/mL (≈ 8.9 µM)
- MIC [7]: 2 µg/mL (≈ 4.45 µM)
- IC50 [3]: 0.3 µM
- MIC [8]: 8 µg/mL (≈ 17.8 µM)
